Source: publication PMC10767194 (The Journal of Biological Chemistry, 2023)
Where “and” joins values, the source holds several entries; their conditions need not be identical. Identical values can stand only once. Entries after “also recorded” stand apart in the source; their conditions may differ.

Experiments:
[1] = target: T1, Cdk12/CycK (Homo sapiens, UniProt Q9NYV4); assay: radioactive in vitro kinase assay, Cdk12/CycK; type: biochemical; conditions: 20 min; for inhibitory effect on Cdk12/CycK activity, in words: 0, 0.1, 1, 10, 100 μM compound, 0.2 μM Cdk12, 0.2 mM ATP, His-c-Myc; for IC50: 0.2 μM kinase, 0.2 mM ATP, 50 μM His-c-Myc, sigmoidal fit
T1 construct: GST (TEV site) (N, cleaved yes); made in house; host or cells: Sf9 insect cells, co-expressed with S. cerevisiae CAK1
Protocol: To a concentration of 0.2 μM kinase and 0.2 mM ATP, a compound concentration ranging from 0.1 nM to 1 mM was applied. Kinase reactions were started by the addition of 100 μM CTD peptide containing three hepta-repeats continuously prephosphorylated at position S7 (pS7-CTD[3]) and terminated after 60 min incubation time. In vitro IC50-values were determined by applying a sigmoidal fit to dose-response measurements (Fig. 1A).
Cdk12 kinase (0.2 μM) in the presence of 0.2 mM ATP were supplemented with respective compounds at concentrations of 0, 0.1, 1, 10, and 100 μM for 5 min. Upon addition of 50 μM His-c-Myc substrate the kinase assay reaction was conducted for 20 min.
Radioactive kinase activity assays were performed in a total volume of 15 μl per sample in kinase assay buffer (50 mM Hepes/pH 7.6, 34 mM KCl, 7 mM MgCl2, 5 mM β-glycerol phosphate, and 2.5 mM dithioerythritol). Preincubation of 0.2 μM or 0.02 μM recombinant protein kinase with indicated concentrations of respective inhibitor and 0.2 to 2 mM ATP containing 0.45 mCi [^32P]-γ-ATP/ml (PerkinElmer) was carried out for 5 min. Kinase reactions were started by addition of substrate protein (10 μM GST-Rb1 for Cdk4/CycD3, 10 μM GST-CTD[52] for Cdk7/CycH/MAT1, 50 μM His-c-Myc for all others) and incubated for 20 min at 30 °C in a shaking incubator at 300 rpm. For pS7-CTD[3] peptide, the substrate concentration was increased to 100 μM and assays were performed for 60 min. Reactions were terminated by the addition of EDTA to a final concentration of 50 mM. Reaction samples were separately spotted onto Amersham Protran nitrocellulose membranes (GE HealthCare) and subsequently washed three times for 5 min in PBS. Samples were transferred to 4 ml liquid scintillation vials and 2 ml liquid scintillator (Ultima Gold) were added. Radioactive counts were determined in a Beckman Liquid Scintillation Counter (Beckman Coulter) for 1 min. […] For analysis of dose response measurements and IC50 value determination, data of inhibitor-supplemented samples were normalized to DMSO solvent controls and their activity plotted against the inhibitor concentration. IC50 values were extracted from triplicate measurements by sigmoidal curve fitting using DataGraph (v. 5.0; https://www.visualdatatools.com/DataGraph/) or were determined by applying the Morrison quadratic equation for tight binding inhibitors using GraphPad Prism 10 (https://www.graphpad.com/) ([40]).

[2] = target: T1, Cdk12/CycK; assay: SPR single-cycle kinetics, active Cdk12*/CycK; conditions: T-loop phosphorylated active kinase (CAK1 coexpressed), 1:1 binding model
[3] = target: T2, Cdk9/CycT1 (Homo sapiens, UniProt P50750); assay: SPR single-cycle kinetics, Cdk9/CycT1; conditions: 1:1 binding model
T2 construct: Full-length, human, WT Cdk9 (residues 1–372, UniProt P50750); made in house; host or cells: Cdk9: Sf9 insect cells; CycT1: E. coli
Protocol: The protein kinases were immobilized on a CM5 chip using the amine-coupling method. […] The fully active and T-loop phosphorylated kinase preparations of Cdk12∗/CycK and Cdk13∗/CycK were obtained through coexpression with Cdk-activating kinase 1 (CAK1) from Saccharomyces cerevisiae. […] For comparison, we measured the affinity of NVP-2 for active kinases Cdk12∗/CycK and its proposed target Cdk9/CycT1 by SPR.
SPR experiments were conducted on a Biacore 8K (Cytiva) device. The system was equilibrated in running buffer (20 mM Tris pH 8, 150 mM NaCl, 1 mM tris(2-carboxyethyl)phosphine, 0.1 mM MgCl2, 0.05% Tween20, and 2% DMSO) at 25 °C. Flow cell 1 and 2 surfaces of a CM5 sensor chip (Cytiva) were conditioned with 50 mM NaOH at a flow rate of 30 μl/min for 15 s and subsequently activated with a 1:1 mix of 0.1 M N-hydroxysuccinimide (NHS) and 0.1 M 3-(N,N-dimethylamino) propyl-N-ethyl-carbodiimide (EDC) at a flow rate of 10 μl/min for 7 min. The flow system was washed with 1 M enthanolamine (pH 8). WT and mutant kinases Cdk12/CycK, Cdk13/CycK and Cdk9/CycT1 were diluted in Mes (pH 6.5) to a final concentration of 2 μM. Immobilization of kinases was performed in running buffer without DMSO using the amine coupling method on flow cell 2 surface for 160 s at a flow rate of 10 μl/min. Free binding sites were blocked with 1 M ethanolamine pH 8.0 (10 μl/min) for 7 min. […]

[4] = target: T3, Cdk12 kinase domain (residues 714–1063), T-loop phosphorylated, coexpressed with CAK1 (human, UniProt Q9NYV4 714-1063, phosphothreonine at 893 (pT893)); assay: crystal structure; Cdk12/CycK at 12 mg/ml with 5-fold excess of SR-4835; hanging drop vapor diffusion at 15 °C; 0.1 M Mops pH 6.5, 30% PEG mix, 0.1 M NDSB; 2.68 Å; conditions: both partners purified
T3 construct: kinase domain of human Cdk12, residues 714–1063, UniProt Q9NYV4; synthetic codon-optimised gene; The final model of 8P81 holds residues 716 to 1032 of Cdk12; also called cyclin-dependent kinase 12; not shown: GST, N-terminal, cleaved
T3 sequence (Q9NYV4 714-1063): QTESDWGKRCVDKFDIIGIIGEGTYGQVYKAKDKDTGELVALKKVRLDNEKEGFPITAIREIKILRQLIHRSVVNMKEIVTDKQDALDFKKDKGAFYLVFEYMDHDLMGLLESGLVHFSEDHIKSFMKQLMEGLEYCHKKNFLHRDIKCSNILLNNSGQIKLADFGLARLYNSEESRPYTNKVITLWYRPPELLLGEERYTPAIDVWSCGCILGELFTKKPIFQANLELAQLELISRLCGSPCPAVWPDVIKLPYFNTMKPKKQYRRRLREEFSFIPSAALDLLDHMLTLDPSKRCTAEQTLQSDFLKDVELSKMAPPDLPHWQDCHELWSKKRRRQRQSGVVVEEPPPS

T1 sequence (Q9NYV4 714-1063, one chain of several): as the sequence (Q9NYV4 714-1063) above
T2 sequence (P50750 whole entry, the tested form may be a part): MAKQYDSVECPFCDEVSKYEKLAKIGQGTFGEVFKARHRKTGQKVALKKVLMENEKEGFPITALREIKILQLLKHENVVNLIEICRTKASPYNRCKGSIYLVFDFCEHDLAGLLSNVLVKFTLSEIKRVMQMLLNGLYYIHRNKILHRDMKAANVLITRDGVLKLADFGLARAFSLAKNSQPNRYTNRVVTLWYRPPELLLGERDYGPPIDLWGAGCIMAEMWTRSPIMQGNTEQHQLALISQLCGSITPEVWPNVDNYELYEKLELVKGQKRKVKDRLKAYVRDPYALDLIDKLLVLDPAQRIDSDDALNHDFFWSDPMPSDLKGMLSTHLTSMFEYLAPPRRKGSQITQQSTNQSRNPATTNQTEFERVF
T2 sequence (O60563 1-272 partner limits assumed): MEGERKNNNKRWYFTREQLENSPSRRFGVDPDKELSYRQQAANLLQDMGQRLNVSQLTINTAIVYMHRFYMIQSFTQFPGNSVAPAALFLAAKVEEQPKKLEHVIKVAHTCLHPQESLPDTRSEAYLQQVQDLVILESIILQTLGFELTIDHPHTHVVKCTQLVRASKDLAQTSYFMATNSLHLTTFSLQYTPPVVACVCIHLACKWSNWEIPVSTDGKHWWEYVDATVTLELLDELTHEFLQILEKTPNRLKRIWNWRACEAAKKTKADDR

| inhibitory effect on Cdk12/CycK activity, in words [1] | IC50 [1] | Molecule | also measured |
| --- | --- | --- | --- |
| highest potency | 40.9 nM | COC[C@@H](C)NC1CCC(Nc2cc(-c3cccc(NCC4(C#N)CCOCC4)n3)c(Cl)cn2)CC1 (some centres unmarked) [NVP-2] | Kd [2]: 2.9 nM and 2.88 nM; Kd [3]: 0.1 nM |
| modest effects | 87.2 nM | CN(C)C/C=C/C(=O)Nc1ccc(C(=O)Nc2cccc(Nc3ncc(Cl)c(-c4c[nH]c5ccccc45)n3)c2)cc1 [THZ1] |  |
| modest effects | 174 nM | CN(C)C/C=C/C(=O)Nc1ccc(C(=O)N2CCC[C@@H](Nc3ncc(Cl)c(-c4c[nH]c5ccccc45)n3)C2)cc1 [THZ531] |  |
| highest potency |  | CCc1cnn2c(NCc3ccc[n+]([O-])c3)cc(N3CCCC[C@H]3CCO)nc12 [dinaciclib] |  |
| modest effects |  | CN1CC[C@H](c2c(O)cc(O)c3c(=O)cc(-c4ccccc4Cl)oc23)[C@H](O)C1 [flavopiridol] |  |
| no inhibitory effect |  | CC(=O)c1c(C)c2cnc(Nc3ccc(N4CCNCC4)cn3)nc2n(C2CCCC2)c1=O [palbociclib] |  |
| no inhibitory effect |  | CN(C)C(=O)c1cc2cnc(Nc3ccc(N4CCNCC4)cn3)nc2n1C1CCCC1 [ribociclib] |  |
|  |  | cyclin K cyclin box domains (residues 1–267) (domain or fragment, human, UniProt O75909 1-267, looked up, cyclin box domains of human cyclin K, residues 1–267, UniProt O75909; synthetic codon-optimised gene; The final model of 8P81 holds residues 20 to 260 of CycK; also called CycK; not shown: GST, N-terminal, cleaved) MKENKENSSPSVTSANLDHTKPCWYWDKKDLAHTPSQLEGLDPATEARYRREGARFIFDVGTRLGLHYDTLATGIIYFHRFYMFHSFKQFPRYVTGACCLFLAGKVEETPKKCKDIIKTARSLLNDVQFGQFGDDPKEEVMVLERILLQTIKFDLQVEHPYQFLLKYAKQLKGDKNKIQKLVQMAWTFVNDSLCTTLSLQWEPEIIAVAVMYLAGRLCKFEIQEWTSKPMYRRWWEQFVQDVPVDVLEDICHQILDLYSQGKQQMPH | binding result [4]: binds |

| Molecule | inhibitory effect on Cdk12/CycK activity, in words [1] | IC50 [1] | also measured |
| --- | --- | --- | --- |
| CCN1CCN(Cc2ccc(Nc3ncc(F)c(-c4cc(F)c5nc(C)n(C(C)C)c5c4)n3)nc2)CC1 [abemaciclib] | modest effects; also recorded: only weak efficacy | 1300 nM |  |
| CN1CCN(c2ccc(Nc3ncc4cc5n(c4n3)C3(CCCCC3)CNC5=O)nc2)CC1 [trilaciclib] | modest effects; also recorded: only weak efficacy | 1340 nM |  |
